From ChEMBL document CHEMBL1201862, “PubChem BioAssay data set” (2004)
Calls of active or inactive are those of the source.

Assays:
[1] = biological target: T1, Probable nicotinate-nucleotide adenylyltransferase (Staphylococcus aureus (strain N315), UniProt P65502); format: functional, Staphylococcus aureus subsp. aureus N315;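 for IC50 Mean: confirmatory dose-response retesting of NadD inhibitor hits first found in an ultra-high-throughput screen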
[2] = biological target: T1, Probable nicotinate-nucleotide adenylyltransferase; format: functional, Staphylococcus aureus subsp. aureus N315; details: read-out: IC50_Mean
[3] = biological target: T2, Low molecular weight phosphotyrosine protein phosphatase (Homo sapiens, UniProt P24666); format: functional; details: read-out: IC50_Mean;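 note: Dose-response confirmation assay measuring inhibition of LMPTP enzyme activity by fluorescence intensity read-out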
T2 sequence (P24666 whole entry): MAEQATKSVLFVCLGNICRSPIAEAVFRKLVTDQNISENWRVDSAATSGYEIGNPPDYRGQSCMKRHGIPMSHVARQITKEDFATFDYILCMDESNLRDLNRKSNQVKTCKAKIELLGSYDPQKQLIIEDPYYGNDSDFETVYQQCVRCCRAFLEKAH

Caspase-6 = biological target: T3, Caspase-6 (Homo sapiens, UniProt P55212); assay: human caspase-6 inhibitors, dose response, biochemical, VEID-R110 fluorescence, cherry-pick (AID 720632)
T3 sequence (P55212 whole entry): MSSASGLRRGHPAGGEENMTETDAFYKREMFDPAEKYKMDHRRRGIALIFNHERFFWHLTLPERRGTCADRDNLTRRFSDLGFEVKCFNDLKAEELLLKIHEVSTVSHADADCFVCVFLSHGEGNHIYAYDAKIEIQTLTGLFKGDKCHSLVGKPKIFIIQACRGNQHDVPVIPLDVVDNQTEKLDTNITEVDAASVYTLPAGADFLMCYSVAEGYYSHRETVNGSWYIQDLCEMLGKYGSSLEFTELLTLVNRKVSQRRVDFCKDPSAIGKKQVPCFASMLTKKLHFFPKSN

Paired box protein Pax-8 = Paired box protein Pax-8 (Homo sapiens, UniProt Q06710); assay: inhibitors of PAX8-driven TPO luciferase reporter, dose response, RMG-I cells, cherry-pick (AID 687027); format: functional, cell-based;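 note: luciferase reporter driven by Pax8 target thyroperoxidase promoter measured by SteadyGlo luminescence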
Sequence of Paired box protein Pax-8 (Q06710 whole entry): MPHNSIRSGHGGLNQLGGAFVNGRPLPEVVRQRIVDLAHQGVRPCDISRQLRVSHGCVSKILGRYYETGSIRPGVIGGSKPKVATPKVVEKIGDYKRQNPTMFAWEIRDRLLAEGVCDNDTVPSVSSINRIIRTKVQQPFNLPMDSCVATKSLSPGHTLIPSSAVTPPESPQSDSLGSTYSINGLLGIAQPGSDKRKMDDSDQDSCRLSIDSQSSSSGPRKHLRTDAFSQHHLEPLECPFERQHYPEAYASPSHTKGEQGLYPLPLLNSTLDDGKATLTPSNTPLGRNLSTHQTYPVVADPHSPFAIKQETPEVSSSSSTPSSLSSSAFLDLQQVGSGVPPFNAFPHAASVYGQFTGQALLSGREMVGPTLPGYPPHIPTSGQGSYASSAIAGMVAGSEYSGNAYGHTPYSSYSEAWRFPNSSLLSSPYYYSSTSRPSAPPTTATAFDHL

[4] = IOSE-T80 ovarian epithelial cell cytotoxicity, dose response, cytotoxicity control for PAX8 inhibitor project, plate reader, dry powder samples (AID 743045); format: functional, cell-based
[5] = NIH:OVCAR-3 ovarian cancer cell cytotoxicity, dose response, PAX8 inhibitor project, plate reader, dry powder samples (AID 743044); format: functional, cell-based
[6] = IGROV1 ovarian cancer cell cytotoxicity, dose response, PAX8 inhibitor project, plate reader, dry powder samples (AID 743043); format: functional, cell-based; details: IGROV-1
[7] = cytotoxicity in OVCAR8 ovarian cancer cells, dose response, PAX8 project, cell-based, plate reader, dry powder samples (AID 743197); format: functional; details: OVCAR-8
[8] = biological target: T4, Long-chain-fatty-acid--AMP ligase FadD28 (Mycobacterium tuberculosis, UniProt P9WQ59); assay: Fluorescence polarization aasay to screen for inhibitors that compete for the binding of FadD28 to a bisubstrate Measured in Biochemical System Using Plate Reader - 2147-01_Inhibitor_Dose_CherryPick_Activity.; format: functional, Mycobacterium tuberculosis H37Rv
T4 sequence (P9WQ59 whole entry): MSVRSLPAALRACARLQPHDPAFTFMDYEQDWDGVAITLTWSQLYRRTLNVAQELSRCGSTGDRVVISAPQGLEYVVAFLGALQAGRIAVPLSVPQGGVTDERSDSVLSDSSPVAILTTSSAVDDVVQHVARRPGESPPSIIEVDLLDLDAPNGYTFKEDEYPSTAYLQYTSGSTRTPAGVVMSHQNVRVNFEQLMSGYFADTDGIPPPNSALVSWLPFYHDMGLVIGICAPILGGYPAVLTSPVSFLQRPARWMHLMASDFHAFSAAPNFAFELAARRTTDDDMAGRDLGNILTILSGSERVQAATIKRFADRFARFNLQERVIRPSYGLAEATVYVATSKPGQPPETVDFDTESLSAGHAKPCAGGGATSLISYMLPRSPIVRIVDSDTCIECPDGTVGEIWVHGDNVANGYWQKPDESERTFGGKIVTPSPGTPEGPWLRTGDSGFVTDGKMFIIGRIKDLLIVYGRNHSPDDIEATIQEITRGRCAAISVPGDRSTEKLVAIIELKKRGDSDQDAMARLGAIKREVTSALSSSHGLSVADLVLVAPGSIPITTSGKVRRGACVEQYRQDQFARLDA

[9] = system: Streptococcus sp. 'group A'; assay: growth inhibition of control SK(-) GAS strain, dose response, counter-screen for streptokinase expression inhibitor project, luminescence, kanamycin, BacTiterGlo, confirmation (AID 1900); format: functional, organism-based
Streptococcus = assay: Group A Streptococcus viability loss, dose response, counter-screen for streptokinase expression inhibitor project, luminescence, BacTiterGlo (AID 1915); format: functional, organism-based;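 note: potency for reduction of bacterial viability or growth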

T1 sequence (P65502 whole entry): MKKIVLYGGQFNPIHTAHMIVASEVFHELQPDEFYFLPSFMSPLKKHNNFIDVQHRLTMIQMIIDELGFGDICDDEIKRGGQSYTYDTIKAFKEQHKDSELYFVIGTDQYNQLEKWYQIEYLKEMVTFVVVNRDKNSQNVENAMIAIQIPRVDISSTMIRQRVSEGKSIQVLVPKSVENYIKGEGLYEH

Oc1ccc(C[C@H]2CNC(=S)N2CC2CCCN2C[C@H](Cc2ccc(O)cc2)N2C[C@H](Cc3ccccc3)N(CC3CCCCC3)C2=S)cc1 (stereo partly drawn)
IC50 [1]: 16.3 µM (active)
IC50 [2]: 22.1 µM (active)

CN(C)c1ccc(C(=O)C=Cc2ccc([N+](=O)[O-])cc2)cc1
IC50 [3]: 80 µM (inactive)

Nc1c(Br)cc(Br)c2c1nc(O)c1ccccc12
AC50 (Caspase-6): 18.1 µM (active)

C[C@@H]1CN([C@H](C)CO)C(=O)c2cc(NC(=O)Nc3ccc(C(F)(F)F)cc3)ccc2O[C@@H](C)CCCCO[C@H]1CN(C)C(=O)c1ccccc1
AC50 (Paired box protein Pax-8): 12.1 µM (active)
AC50 [4]: 37.5 µM (active)
AC50 [5]: 33.2 µM (active)
AC50 [6]: 35.6 µM (active)
AC50 [7]: 50.7 µM (active)

O=C(O)c1ccc(N/N=C/c2cc(Br)cs2)cc1
AC50 [8]: 32 µM (inactive)

CC[C@H]1OC(=O)[C@H](C)[C@@H](O[C@H]2C[C@@](C)(OC)[C@@H](O)[C@H](C)O2)[C@H](C)[C@@H](O[C@@H]2O[C@H](C)C[C@H](N(C)C)[C@H]2O)[C@](C)(O)C[C@@H](C)C(=O)[C@H](C)[C@@H](O)[C@]1(C)O [ERYTHROMYCIN]
EC50 [9]: < 0.06 µM (active)
EC50 (Streptococcus): < 0.06 µM (active)
IC50 [3]: 47.1 µM (inactive)
